Test results published in patent US6225306A, “Biphenyl derivatives and drug composition” (Wakamoto Pharmaceutical Co., Ltd., priority 1997, dated 2001).
Counter-ions that a name gives are not always drawn.

Key:
Normal Conscious Rat = assay: Aquaretic Effects in Normal Conscious Rat (urine volume); format: in vivo, rat (Sprague-Dawley, male)
Procedure: Aquaretic Effects in Normal Conscious Rat
Studies were performed with Sprague-Dawley male SPF rats (body weight: 240 to 320 g; 8-week-old). In this experiment, each group consisted of not less than 4 animals and rats were fasted over 16 to 20 hours. The animals were acclimatized in metabolic cages for one hour, then each compound to be tested was dissolved in 100% N,N-dimethylformamide or suspended in 5% gum arabic solution and administered to these animals intravenously (iv.) in a dose of 3 mg/kg or orally (p.o.) in a dose of 30 mg/kg. Immediately after the test compound or vehicle were orally administered, saline (25 ml/kg) was given orally. Spontaneous voided urines were collected for 4 hours after the administration of the compound and the amount of the urine were determined. In this case, the control group consisted of animals to which only 5% gum arabic was orally administered.
In addition, known compounds of Comparative Examples 2 and Comparative Examples 3 and 4 represented by the following formulas were used as control compounds.

Vasopressin V1 Receptor = Vasopressin V1 Receptor (Rattus norvegicus, UniProt P30560); assay: biochemical; format: binding, rat (Sprague-Dawley, female; liver crude membrane); settings: 1 h; 10^-7 M; inhibition rate at this concentration; read-out: Binding Rate of Vasopressin V1 Receptor
Procedure: The livers excised from Sprague-Dawley female rats were cut into small pieces, and were homogenized in 50 mM Tris-HCl, pH 7.4 hereunder referred to as "buffer"). The homogenate was centrifuged at 50000×g, at 4° C. for 20 minutes. The pellet was added the buffer in an amount of 10 times the volume of the pellet, the mixture was recentrifuged by the same method as described above to wash the residue. The buffer was further added to the resulting pellet so that the protein content thereof was adjusted to 10 mg/ml to thus give a crude membrane fraction of rat liver. The crude membrane fraction of rat liver was used in the following test. More specifically, 5000 μg of the crude liver membrane was incubated with [^3 H]-Arg-vasopressin V-1 antagonist ([^3 H) vasopressin V1 antagonist: 2 nM) and various concentration (3×10^-12 to 10^-6) of the test compounds in a 1000 μL of buffer containing 10 mM magnesium chloride, 10 mM potassium chloride and 0.1% bovine serum albumin at 25° C. for 60 minutes. Thereafter the incubation mixture was rapidly filtered by vacuum using a cell harvester. The filters were washed with buffer to remove free ligands and excess buffer, and to thus trap labeled ligand linked with the receptor on the filter paper. The filter paper was sufficiently dried and mixed with a liquid scintillator, and the amount of the [^3 H] vasopressin V1 antagonist bonded to the membrane was determined using a liquid scintillation counter. The inhibition rate at each concentration was calculated according to the following equation:
Inhibition Rate (%)=100-[(B-N)/(B0 -N)]×100
Wherein B represents the amount of the [^3 H] vasopressin V1 antagonist bonded to the membrane in the presence of known amounts of the compound to be tested and the [^3 CH] vasopressin V1 antagonist;
B0 represents the amount of the [^3 H] vasopressin V1 antagonist bonded to the membrane in the absence of the compound to be tested;
N represents the amount of the [^3 H] vasopressin V1 antagonist bonded to the membrane in the presence of an excess of vasopressin (10^-6 M).
The IC50 value (the concentration required to cause 50% inhibition of the specific binding of [^3 H]-V1 antagonist) was determined. […] On the other hand, for the compounds which were investigated only one concentration (10^-7 M), the inhibition rate at that concentration was defined to be the binding rate.

Vasopressin V2 Receptor = Vasopressin V2 Receptor (Rattus norvegicus, UniProt Q00788); assay: biochemical; format: binding, rat (Sprague-Dawley, female; kidney crude membrane); settings: 1 h; 10^-7 M; inhibition rate at this concentration; read-out: Binding Rate of Vasopressin V2 Receptor
Vasopressin V2 Receptor, sequence (Q00788 whole entry): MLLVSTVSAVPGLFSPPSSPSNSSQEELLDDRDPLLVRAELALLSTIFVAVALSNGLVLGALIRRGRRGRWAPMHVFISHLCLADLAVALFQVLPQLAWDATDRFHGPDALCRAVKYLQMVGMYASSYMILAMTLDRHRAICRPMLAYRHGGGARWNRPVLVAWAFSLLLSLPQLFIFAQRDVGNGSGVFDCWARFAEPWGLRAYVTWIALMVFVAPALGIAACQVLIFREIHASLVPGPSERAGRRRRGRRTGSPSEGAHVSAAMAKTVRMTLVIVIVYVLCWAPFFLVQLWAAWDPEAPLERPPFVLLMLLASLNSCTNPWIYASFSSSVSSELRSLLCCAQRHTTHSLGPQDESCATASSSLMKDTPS

Vasopressin V1 Receptor, sequence (P30560 whole entry): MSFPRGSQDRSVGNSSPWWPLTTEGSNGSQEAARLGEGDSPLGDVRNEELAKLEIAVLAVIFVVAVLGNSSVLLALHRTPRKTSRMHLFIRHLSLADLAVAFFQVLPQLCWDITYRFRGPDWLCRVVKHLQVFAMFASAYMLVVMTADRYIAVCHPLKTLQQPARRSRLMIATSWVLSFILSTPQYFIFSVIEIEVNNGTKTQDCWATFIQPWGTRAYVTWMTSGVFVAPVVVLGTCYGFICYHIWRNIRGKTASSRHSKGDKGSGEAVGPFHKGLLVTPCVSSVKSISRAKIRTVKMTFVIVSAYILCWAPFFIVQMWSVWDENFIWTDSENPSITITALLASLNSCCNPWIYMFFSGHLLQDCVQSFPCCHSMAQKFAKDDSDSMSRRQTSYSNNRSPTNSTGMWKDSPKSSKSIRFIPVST

Compound | Amount of Urine Volume (Normal Conscious Rat; 3 mg/kg, i.v.) [ml/kg/0-4 hr.] | Amount of Urine Volume (Normal Conscious Rat; 30 mg/kg, p.o.) [ml/kg/0-4 hr.] | inhibition at 0.1 µM (Vasopressin V1 Receptor) [%] | inhibition at 0.1 µM (Vasopressin V2 Receptor) [%]
Cc1ccccc1C(=O)Nc1ccc(C(=O)N2Cc3cccn3Cc3ccccc32)cc1 [Comp. Ex. 4, reference compound] | 34.8 | 22.6 |  | 
O=C(Nc1ccc(C(=O)N2C[C@@H]3CCCN3c3ccccc32)cc1)c1ccccc1-c1ccccc1 [Example 1, (3aS)-5-[4-[(2-Phenylbenzoyl)Amino]Benzoyl]-1,2,3,3a,4,5-Hexahydro-Pyrrolo[1,2-a]Quinoxaline] | 33.1 | 40.3 |  | 
O=C(Nc1ccc(C(=O)N2C[C@@H]3C[C@@H](O)CN3c3ccccc32)cc1)c1ccccc1-c1ccccc1 [Example 3] | 29.5 | 54.0 |  | 
O=C(Nc1ccc(C(=O)N2C[C@@H]3C[C@H](O)CN3c3ccccc32)cc1)c1ccccc1-c1ccccc1 [Example 7, (2S, 3aS)-2-Hydroxy-5-[4-[(2-Phenylbenzoyl) Amino]Benzoyl]-1,2,3,3a,4,5-Hexahydro-Pyrrolo[1,2-a]Quinoxaline] | 29.3 | 33.8 |  | 
Cc1ccc(-c2ccccc2C(=O)Nc2ccc(C(=O)N3C[C@@H]4C[C@H](O)CN4c4ccccc43)cc2)cc1 [Example 8, (2S, 3aS)-2-Hydroxy-5-[4-[[2-(4-Tolyl) Benzoyl]Amino]Benzoyl]-1,2,3,3a,4,5-Hexahydro-Pyrrolo[1,2-a]Quinoxahine] |  |  | 16.3 | 100
CN(C)[C@H]1C[C@H]2CN(C(=O)c3ccc(NC(=O)c4ccccc4-c4ccccc4)cc3)c3ccccc3N2C1.Cl [Example 10, (2S, 3aS)-2-(N,N-Dimethylamino)-5-[4-[(2-Phenylbenzoyl) Amino]Benzoyl]-1,2,3,3a,4,5-Hexahydro-Pyrrolo[1,2-a]Quinoxaline Hydrochloride] | 22.2 | 39.6 |  | 
O=C(Nc1ccc(C(=O)N2C[C@H]3CCCN3c3ccccc32)cc1)c1ccccc1-c1ccccc1 [Example 11, (3aR)-5-[4-[(2-Phenylbenzoyl) Amino]Benzoyl]-1,2,3,3a,4,5-Hexahydro-Pyrrolo[1,2-a]Quinoxaline] | 56.5 | 69.6 | 34 | 100
Cc1ccc(-c2ccccc2C(=O)Nc2ccc(C(=O)N3C[C@H]4CCCN4c4ccccc43)cc2)cc1 [Example 12, (3aR)-5-[4-[[2-(4-Tolyl) Benzoyl]Amino]Benzoyl]-1,2,3,3a,4,5-Hexahydro-Pyrrolo[1,2-a]Quinoxaline] | 66.0 | 12.8 |  | 
Cc1ccc(-c2ccccc2C(=O)Nc2ccc(C(=O)N3C[C@H]4C[C@@H](O)CN4c4ccccc43)cc2)cc1 [Example 14, (2R,3aR)-2-Hydroxy-5-[4-[[2-(4-Tolyl) Benzoyl]Amino]Benzoyl]-1,2,3,3a-4,5-Hexahydro-Pyrrolo[1,2-a]Quinoxaline] | 60.6 | 90.3 |  | 
CC(=O)O[C@H]1C[C@@H]2CN(C(=O)c3ccc(NC(=O)c4ccccc4-c4ccc(C)cc4)cc3)c3ccccc3N2C1 [Example 16, (2S, 3aR)-2-Acetoxy-5-[4-[[2-(4-Tolyl) Benzoyl]Amino]Benzoyl]-1,2,3,3a,4,5-Hexahydro-Pyrrolo[1,2-a]Quinoxaline] | 71.0 | 72.0 | 68.2 | 100
O=C(Nc1ccc(C(=O)N2C[C@H]3C[C@H](O)CN3c3ccccc32)cc1)c1ccccc1-c1ccccc1 [Example 17, (2S, 3aR)-2-Hydroxy-5-[4-[(2-Phenylbenzoyl) Amino]Benzoyl]-1,2,3,3a,4,5-Hexahydro-Pyrrolo[1,2-a]Quinoxaline] | 58.6 | 26.3 | 52.4 | 100
CN(C)[C@H]1C[C@@H]2CN(C(=O)c3ccc(NC(=O)c4ccccc4-c4ccccc4)cc3)c3ccccc3N2C1 [Example 21, (2S, 3aR)-2-(N,N-Dimethylamino)-5-[4-[(2-Phenylbenzoyl) Amino]Benzoyl]-1,2,3,3a,4,5-Hexahydro-Pyrrolo[1,2-a]Quinoxaline] | 47.6 | 81.4 | 19.5 | 100
Cc1ccc(-c2ccccc2C(=O)Nc2ccc(C(=O)N3C[C@H]4C[C@H](N(C)C)CN4c4ccccc43)cc2)cc1 [Example 22, (2S, 3aR)-2-(N,N-Dimethylamino)-5-[4-[[2-(4-Tolyl) Benzoy]Amino]Benzoyl]-1,2,3,3a,4,5-Hexahydro-Pyrrolo[1,2-a]Quinoxaline Hydrochloride] | 58.8 | 79.6 | 33.5 | 100
O=C(Nc1ccc(C(=O)N2C[C@H]3C[C@H](F)CN3c3ccccc32)cc1)c1ccccc1-c1ccccc1 [Example 23, (2S, 3aR)-2-Fluoro-5-[4-[(2-Phenylbenzoyl) Amino]Benzoyl]-1,2,3,3a,4,5-Hexahydro-Pyrrolo[1,2-a]Quinoxaline] | 27.2 | 35.6 |  | 
Cc1ccc(-c2ccccc2C(=O)Nc2ccc(C(=O)N3C[C@H]4CC(=O)CN4c4ccccc43)cc2)cc1 [Example 24] | 49.4 | 46.1 | 16.5 | 100
Cc1ccc(-c2ccccc2C(=O)Nc2ccc(C(=O)N3C[C@@H]4CCCN4C(=O)c4ccccc43)cc2)cc1 [Example 26, (11aS)-10-[4-[[2-(4-Tolyl) Benzoyl]Amino]Benzoyl]-1,2,3,10,11,11a-Hexahydro-5H-Pyrrolo[2,1-c][1,4]Benzodiazepin-5-One] | 72.3 | 88.3 | 4 | 100
O=C(Nc1ccc(C(=O)N2C[C@@H]3C[C@H](O)CN3C(=O)c3ccccc32)cc1)c1ccccc1-c1ccccc1 [Example 29, (2S, 11aS)-2-Hydroxy-10-[4-[(2-Phenylbenzoyl) Amino]Benzoyl]-1,2,3,10,11,11a-Hexahydro-5H-Pyrrolo[2,1-c][1,4]Benzodiazepin-5-One] | 50.4 | 14.0 | 18.9 | 99.5
O=C(Nc1ccc(C(=O)N2C[C@@H]3CCCN3C(=S)c3ccccc32)cc1)c1ccccc1-c1ccccc1 [Example 37, (11aS)-10-[4-[(2-Phenylbenzoyl) Amino]Benzoyl]-1,2,3,10,11, 11a-Hexahydro-5H-Pyrrolo[2,1-c][1,4]Benzodiazepin-5-Thione] | 40.7 | 21.1 | 2.8 | 100
Cl.O=C(Nc1ccc(C(=O)N2C[C@H]3C[C@@H](O)CN3Cc3ccccc32)cc1)c1ccccc1-c1ccccc1 [Example 45, (2R,11aR)-2-Hydroxy-10-[4-[(2-Phenylbenzoyl) Amino]Benzoyl]-1,2,3,10,11,11a-Hexahydro-5H-Pyrrolo[2,1-c][1,4]Benzodiazepine Hydrochloride] | 51.4 | 93.9 |  | 
CC(=O)O[C@H]1C[C@@H]2CN(C(=O)c3ccc(NC(=O)c4ccccc4-c4ccccc4)cc3)c3ccccc3CN2C1 [Example 46, (2S, 11aR)-2-Acetoxy-10-[4-[(2-Phenylbenzoyl) Amino]Benzoyl]-1,2,3,10,11,11a-Hexahydro-5H-Pyrrolo[2,1-c][1,4]Benzodiazepine] | 82.5 | 118.8 |  | 
O=C(Nc1ccc(C(=O)N2CC[C@H]3CCCN3c3ccccc32)cc1)c1ccccc1-c1ccccc1 [Example 51, (3aR)-6-[4-[(2-Phenylbenzoyl) Amino]Benzoyl]-2,3,3a,4,5,6-Hexahydro-1H-Pyrrolo[1,2-a][1,5]Benzodiazepine] | 63.8 | 21.7 |  | 
CC(=O)O[C@H]1C[C@@H]2CCN(C(=O)c3ccc(NC(=O)c4ccccc4-c4ccccc4)cc3)c3ccccc3N2C1 [Example 53, (2S, 3aS)-2-Acetoxy-6-[4-[(2-Phenylbenzoyl) Amino]Benzo]-2,3,3a,4,5,6-Hexahydro-1H-Pyrrolo[1,2-a][1,5]Benzodiazepine] |  |  | 63.8 | 97.9
CN(C)C1CC2CCN(C(=O)c3ccc(NC(=O)c4ccccc4-c4ccccc4)cc3)c3ccccc3N2C1.Cl [Example 56, (2S, 3aR)-2-(N,N-dimethylamino)-6-[4-[(2-phenylbenzoyl)amino]benzoyl]-2,3,3a,4,5,6-hexahydro-1H-Pyrrolo[1,2-a][1,5]benzodiazepinehydrochloride] | 87.4 | 116.4 |  | 
